Patent US20120244071A1, “FTY720 HALOGENATED DERIVATIVES” (Novartis AG, priority 2009, published 2012)
Where a name gives a salt, the structure may show the parent alone.

How the values were obtained:
[1] = target: T1, S1P3 (Homo sapiens, UniProt Q99500); assay: GTPγS binding assay using S1P receptor/CHO membranes preparation; type: biochemical; set-up: expressed in transfected cells; membrane preparation; conditions: [35S]GTPγS, CHO membranes, SPA
Experimental: (§1) GTPγS Binding Assay Using S1P Receptor/CHO Membranes Preparation
(§2) The assay is based on the SPA technology (Amersham) and run in a 96 well format. Membranes are prepared from CHO cells stably expressing the S1P receptor of interest. Aliquots are stored at −80° C. Membranes (5-10 μg/well) resuspended in assay buffer (20 mM HEPES, pH7.4, 100 mM NaCl, 10 mM MgCl2 and 0.1% fat free BSA) containing 25 μg/mL Saponin and 10 μM GDP are mixed WGA-coated SPA beads (final conc. 1 mg/well). Ligand and [^35S]GTPγS (1250 Ci/mmol, final concentration 0.2 nM) are added and the plate sealed. After incubation at room temperature for 120 minutes under constant shaking the plates are centrifuged for 10 minutes at 1000×g to pellet the SPA beads. Then the plates are measured in a TopCount NXT instrument (Packard) and the data analyzed using GraphPad PRISM software.
Target sequence in this assay (Q99500 whole entry): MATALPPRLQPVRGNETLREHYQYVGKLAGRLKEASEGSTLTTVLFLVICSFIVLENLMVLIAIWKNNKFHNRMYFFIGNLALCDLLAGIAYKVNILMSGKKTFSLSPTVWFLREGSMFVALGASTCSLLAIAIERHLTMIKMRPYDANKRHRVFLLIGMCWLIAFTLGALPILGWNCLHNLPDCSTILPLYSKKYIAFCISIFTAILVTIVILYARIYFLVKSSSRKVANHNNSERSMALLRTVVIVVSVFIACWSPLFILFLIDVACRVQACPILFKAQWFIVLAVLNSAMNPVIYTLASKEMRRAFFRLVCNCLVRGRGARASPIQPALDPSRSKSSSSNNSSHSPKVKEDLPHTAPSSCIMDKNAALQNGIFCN

[2] = target: T2, S1P1 (Homo sapiens, UniProt P21453); assay: as above; type: biochemical; set-up: expressed in transfected cells; membrane preparation; conditions: [35S]GTPγS, CHO membranes, SPA
Experimental: as §1, §2
Target sequence in this assay (P21453 whole entry): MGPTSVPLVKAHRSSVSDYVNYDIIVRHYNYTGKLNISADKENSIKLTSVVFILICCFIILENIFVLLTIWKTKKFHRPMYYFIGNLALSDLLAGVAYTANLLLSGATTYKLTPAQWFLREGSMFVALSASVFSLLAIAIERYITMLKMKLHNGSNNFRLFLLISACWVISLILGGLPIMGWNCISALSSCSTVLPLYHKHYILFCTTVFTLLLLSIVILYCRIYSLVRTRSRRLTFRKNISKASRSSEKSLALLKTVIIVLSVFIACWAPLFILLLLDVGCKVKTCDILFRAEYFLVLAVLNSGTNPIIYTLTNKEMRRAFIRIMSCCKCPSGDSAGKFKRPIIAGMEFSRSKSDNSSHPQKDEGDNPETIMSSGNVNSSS

[3] = target: T3, S1P4 (Homo sapiens, UniProt O95977); assay: as above; type: biochemical; set-up: expressed in transfected cells; membrane preparation; conditions: [35S]GTPγS, CHO membranes, SPA
T3 sequence (O95977 1-384): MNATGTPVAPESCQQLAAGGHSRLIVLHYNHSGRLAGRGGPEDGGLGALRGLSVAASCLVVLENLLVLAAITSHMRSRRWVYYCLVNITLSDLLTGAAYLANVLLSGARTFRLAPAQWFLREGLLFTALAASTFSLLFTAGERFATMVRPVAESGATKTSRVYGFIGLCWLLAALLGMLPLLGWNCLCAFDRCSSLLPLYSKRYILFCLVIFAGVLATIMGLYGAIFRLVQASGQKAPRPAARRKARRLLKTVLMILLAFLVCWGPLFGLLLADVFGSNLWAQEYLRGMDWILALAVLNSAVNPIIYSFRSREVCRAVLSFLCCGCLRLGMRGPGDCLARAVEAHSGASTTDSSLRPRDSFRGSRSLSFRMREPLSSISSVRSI
Experimental: as §1, §2

[4] = target: T4, S1P5 (Homo sapiens, UniProt Q9H228); assay: as above; type: biochemical; set-up: expressed in transfected cells; membrane preparation; conditions: [35S]GTPγS, CHO membranes, SPA
Experimental: as §1, §2
Target sequence in this assay (Q9H228 whole entry): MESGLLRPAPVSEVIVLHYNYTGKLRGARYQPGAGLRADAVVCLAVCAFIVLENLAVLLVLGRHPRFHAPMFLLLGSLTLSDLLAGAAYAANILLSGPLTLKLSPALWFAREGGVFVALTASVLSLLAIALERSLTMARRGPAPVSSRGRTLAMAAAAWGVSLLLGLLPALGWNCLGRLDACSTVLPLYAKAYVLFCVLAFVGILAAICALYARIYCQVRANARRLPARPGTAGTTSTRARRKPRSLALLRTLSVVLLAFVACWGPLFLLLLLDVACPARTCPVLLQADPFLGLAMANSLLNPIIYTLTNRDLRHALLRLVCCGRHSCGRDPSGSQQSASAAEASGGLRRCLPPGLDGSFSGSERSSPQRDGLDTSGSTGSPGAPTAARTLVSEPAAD

[5] = tested on: peripheral blood lymphocytes; assay: Blood Lymphocyte Depletion assay in Lewis rats; type: in vivo; conditions: intravenous
Experimental: Percent of Lymphocyte Depletion in Lewis Rats
The lymphocyte homing property may be measured in following Blood Lymphocyte Depletion assay:
A S1P receptor agonist or the vehicle is administered intravenously to rats. […] In this assay, the S1P receptor agonist depletes peripheral blood lymphocytes, e.g. by 50%, when administered at a dose of e.g. <20 mg/kg. Preferred S1P receptor agonists are further compounds which in addition to their S1P binding properties internalize/desensitize S1P receptors, thereby antagonizing inflammatory processes driven by lysophospholipids, including i.e. sphingosine 1-phosphate (S1P), sphingophosphorylcholine (SPC), lysophosphatidic acid (LPA), and others, on vasculature cells, e.g. endothelial cells. The internalization/desensitization capacity of compounds will be determined using CHO cells transfected with a human myc-tagged S1P receptor.

[6] = target: S1P2 (Homo sapiens, UniProt O95136); conditions: background statement; cited from earlier work
[7] = target: T2, S1P1; conditions: background statement; cited from earlier work
Target sequence in this assay (P21453 whole entry, species assumed): as the sequence (P21453 whole entry) above

[8] = target: T1, S1P3; conditions: background statement, about 10-fold lower affinity; cited from earlier work
Target sequence in this assay (Q99500 whole entry, species assumed): as the sequence (Q99500 whole entry) above

[9] = target: T3, S1P4; conditions: background statement; cited from earlier work
[10] = target: T4, S1P5; conditions: background statement; cited from earlier work
Target sequence in this assay (Q9H228 whole entry, species assumed): as the sequence (Q9H228 whole entry) above

S1P2, sequence (O95136 whole entry, species assumed): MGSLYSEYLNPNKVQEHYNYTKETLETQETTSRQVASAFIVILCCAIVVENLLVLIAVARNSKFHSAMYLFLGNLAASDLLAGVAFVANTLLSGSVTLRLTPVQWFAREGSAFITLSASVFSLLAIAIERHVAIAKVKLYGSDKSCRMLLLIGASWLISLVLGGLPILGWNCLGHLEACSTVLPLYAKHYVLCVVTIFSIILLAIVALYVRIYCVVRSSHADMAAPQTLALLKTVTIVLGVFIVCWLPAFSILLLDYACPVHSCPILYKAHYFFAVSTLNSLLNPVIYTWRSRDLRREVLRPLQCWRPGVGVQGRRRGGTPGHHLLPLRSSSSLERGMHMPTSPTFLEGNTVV

Row | SMILES | EC50 [1] | EC50 [2] | EC50 [3] | EC50 [4] | Percent of Lymphocyte Depletion ([5]; 2 hours post treatment) | Percent of Lymphocyte Depletion ([5]; 10 hours post treatment) | Percent of Lymphocyte Depletion ([5]; 24 hours post treatment) | further results
1 | NC(CO)(CCc1ccc(OCCCC/C=C/I)cc1)COP(=O)(O)O (racemic) [Example B, (R/S)-phosphoric acid mono-{2-amino-2-hydroxymethyl-4-[4-((E)-6-iodo-hex-5-enyloxy)-phenyl]-butyl}ester] | 1.2 nM | 0.69 nM | 0.84 nM | 0.62 nM |  |  |  | 
2 | NC(CO)(CCc1ccc(OCCCC/C=C\I)cc1)COP(=O)(O)O (racemic) [Example D, (R/S)-phosphoric acid mono-{2-amino-2-hydroxymethyl-4-[4-((z)-6-iodo-hex-5-enyloxy)-phenyl]-butyl}ester] | 3 nM | 1.3 nM | 1.9 nM | 1.1 nM |  |  |  | 
3 | C=C(I)CCCCOc1ccc(CCC(N)(CO)COP(=O)(O)O)cc1 (racemic) [Example F, (R/S)-Phosphoric acid mono-{2-amino-2-hydroxymethyl-4-[4-(5-iodo-hex-5-enyloxy)-phenyl]-butyl}ester] | 8.6 nM | 1.6 nM | 2.9 nM | 1.4 nM |  |  |  | 
4 | C=C(I)CCCCOc1ccc(CCC(N)(CO)CO)cc1 [Example E, 2-Amino-2-{2-[4-(5-iodo-hex-5-enyloxy)-phenyl]-ethyl}-propane-1,3-diol HCl salt] |  |  |  |  | 64% | 82% | 80% | 
5 | CCCCCCCCc1ccc(CCC(N)(CO)CO)cc1I [Example G, 2-Amino-2-[2-(3-iodo-4-octylphenyl)ethyl]-1,3-propandiol] |  |  |  |  | 51% | 88% | 87% | 
6 | CCCCCCCCc1ccc(CCC(N)(CO)CO)c(I)c1 [Example H, 2-Amino-2-[2-(2-iodo-4-octylphenyl)ethyl]-1,3-propandiol] |  |  |  |  | 67% | 89% | 89% | 
7 | CCCCCCCCc1ccc(CC[C@](N)(CO)COP(=O)(O)O)cc1I [Example J] | 84 nM | 0.17 nM | 4.9 nM | 2 nM |  |  |  | 
8 | CCCCCCCCc1ccc(CC[C@](N)(CO)COP(=O)(O)O)c(I)c1 [Example K, Phosphoric acid mono-{(S)-2-amino-2-hydroxymethyl-4-[2-(2-iodo-4-octylphenyl)butyl]}ester] | 46 nM | 0.24 nM | 7.1 nM | 1.5 nM |  |  |  | 
9 | CCCCCCCOc1ccc(CC[C@](N)(CO)COP(=O)(O)O)cc1I [Example L, Phosphoric acid mono-{(S)-2-amino-2-hydroxymethyl-4-[2-(3-iodo-4-(heptyloxy)phenyl)butyl]}ester] |  | 0.3 nM |  | 0.7 nM |  |  |  | 
10 | CCCCCCCCc1ccc(CCC(N)(CO)CO)cc1 [FTY720, 2-amino-2-[2-(4-octylphenyl)ethyl]propane-1,3-diol] |  |  |  |  | 71% | 86% | 86% | binding to S1P2 [6]: not; affinity to S1P1 [7]: 0.3 nM; affinity to S1P3 [8]: 3.1 nM; affinity to S1P4 [9]: 0.6 nM; affinity to S1P5 [10]: 0.3 nM
